Assay results taken from PMC5824344 (ACS Chemical Biology, 2017).

Test system: DENV2 strain 16681 in primary human MDMΦ
Assay: DENV primary MDMΦ antiviral assay (infectious titer by plaque assay)
Type: cell-based, dengue virus
Conditions: Dengue virus, DENV2; dengue-infected MDMΦ, 7 donors; read-out: IC50 for DENV inhibition (infectious virus titer)
Experimental: each well was scored as either positive (≥ 5 stained cells) or negative. TCID50 values were calculated according to the method of Reed and Muench.8
5.7 DENV Primary MDMΦ Antiviral Assay
DENV2 strain 16681 (a gift from Prof. E. Gould, Centre for Ecology and Hydrology, Oxford, United Kingdom) was propagated in the C6/36 cell line. In the antiviral assay, MDMΦ cells (7 donors) were seeded in a 24-well plate at a density of 1× 10^6 cells/well in 1 mL of growth media. The cells were inoculated for 2 h with DENV2 16681 strain at an MOI of 1. […]
The infectious DENV titres in supernatants collected were evaluated by plaque assay as described previously.9 Brieﬂy, LLC-MK2 cells were seeded in conﬂuent monolayers in a 12-well plate. Four 10-fold dilutions of each supernatant to be analyzed were prepared in minimum essential media (MEM, Gibco), supplemented with 100 µg mL−1 streptomycin, 100 U mL−1 penicillin and 10% (v/v) FCS. […]
After 1 d, plaques were observed and counted from the underside of the plate by eye. […]
18 healthy male BALB/c mice (8 – 12 weeks old) weighing between 20 and 35 g were procured from ACTREC, Mumbai, India. […] Temperature and humidity were recorded by an auto-controlled data logging system and maintained at 22± 3◦C and 55± 15% humidity, respectively. […]

## Cc1c(C)c2c(c(C)c1OCCCCCN1CC(O)C(O)C(O)C1CO)CCC(C)(CCCC(C)CCCC(C)CCCC(C)C)O2 (stereo not shown) [Compound 4, 5′-tocopheroxypentyl-DNJ]
  IC50: 12.7 µM
